According to patent publication US8025905B2, “Method for reducing allergencity in indoor spaces” (priority 2001, dated 2011):

B1: subtilisin savinase: subtilisin-type protease derived from Bacillus lentus (protein, UniProt P29600 1-269, looked up)
Subtilisin Savinase: AQSVPWGISRVQAPAAHNRGLTGSGVKVAVLDTGISTHPDLNIRGGASFVPGEPSTQDGNGHGTHVAGTIAALNNSIGVLGVAPSAELYAVKVLGASGSGSVSSIAQGLEWAGNNGMHVANLSLGSPSPSATLEQAVNSATSRGVLVVAASGNSGAGSISYPARYANAMAVGATDQNNNRASFSQYGAGLDIVAPGVNVQSTYPGSTYASLNGTSMATPHVAGAAALVKQKNPSWSNVQIRNHLKNTATSLGSTNLYGSGLVNAEAATR
B2: subtilisin BPN: subtilisin-type protease derived from B. amyloliquefaciens (protein, UniProt P00782 108-382, looked up)
Subtilisin BPN': AQSVPYGVSQIKAPALHSQGYTGSNVKVAVIDSGIDSSHPDLKVAGGASMVPSETNPFQDNNSHGTHVAGTVAALNNSIGVLGVAPSASLYAVKVLGADGSGQYSWIINGIEWAIANNMDVINMSLGGPSGSAALKAAVDKAVASGVVVVAAAGNEGTSGSSSTVGYPGKYPSVIAVGAVDSSNQRASFSSVGPELDVMAPGVSIQSTLPGNKYGAYNGTSMASPHVAGAAALILSKHPNWTNTQVRSSLENTTTKLGDSFYYGKGLINVQAAAQ

Experiments:
house dust mites = details: levels of only 0.1% permethrin; cited from earlier work
[1] = ointment containing 5% permethrin applied for 12 hours, then washed off; cited from earlier work
allergenic polypeptides = assay: Enzymatic degradation of allergens by proteases; type: biochemical
Text: Any enzyme that will cleave the allergenic polypeptides to destroy the epitopes recognized by the asthmatic's sensitized immune system is suitable, but proteases that are less specific (i.e., hydrolyze peptide bonds between a variety of different amino acid residues, rather than only between specific residues) are preferred. […] Similar non-specific proteases are suitable for use in this invention, as well as Bacillus neutral proteases and the like. Genetically engineered enzymes are within the contemplation of this invention, so long as the resulting enzyme can be shown to destroy allergenic epitopes of the primary allergens, as shown by ELISA tests (see, e.g., U.S. Pat. No. 5,314,991). Suitable assays may be analogous to the tests for active T cell epitopes of Der pI, Der pII, Der f1, and Der fII disclosed in U.S. Pat. No. 5,968,526 (incorporated herein by reference).

| Molecule | kill of house dust mites in carpet (house dust mites) | permethrin absorbed through the skin [1] | effectiveness in cleaving allergenic polypeptides (allergenic polypeptides) |
| --- | --- | --- | --- |
| CC1(C)C(C=C(Cl)Cl)C1C(=O)OCc1cccc(Oc2ccccc2)c1 (stereo not shown) [Permethrin] | 100% | Less than 2% |  |
| B1 |  |  | effective |
| B2 |  |  | effective |
